In patent publication US20230233569A1 (Revolution Medicines, Inc., priority 2020, published 2023):
Values joined by “and” are separate entries in the source; they are usually repeats but may differ in a detail not shown here. Equal values may be shown once. Read-outs that look alike come from different tables or passages of the source.

Assays:
[1] = test system: NCI-H358 (K-Ras G12C); experiment: CellTiter-Glo cell viability assay, 5-day treatment; format: cell-based; conditions: Homo sapiens
Experimental: Protocol: CellTiter-Glo® Cell Viability Assay
Note—The following protocol describes a procedure for monitoring cell viability of K-Ras mutant cancer cell lines in response to a compound of the invention. Other RAS isoforms may be employed, though the number of cells to be seeded will vary based on cell line used.
(§1) Test compounds (132.5 nL) were directly dispensed into the assay plates containing cells. […] On day 5, assay plates and their contents were equilibrated to room temperature for approximately 30 minutes. […] Luminescence was measured using the PerkinElmer Enspire. Data were normalized by the following: (Sample signal/Avg. DMSO)*100. The data were fit using a four-parameter logistic fit.
as §1, with “nl)” for “nL)”

[2] = target: KRAS G12D (Homo sapiens, UniProt P01116+P62937, G12D); experiment: Disruption of BRAF RBD interaction with Ras (FRET / MOA assay, with Cyclophilin A); format: biochemical
From the text: (§2) This protocol may also be executed substituting other Ras proteins or nucleotides.
(§3) The purpose of this biochemical assay was to measure the ability of test compounds to facilitate ternary complex formation between a nucleotide-loaded K-Ras isoform and Cyclophilin A; the resulting ternary complex disrupts binding to a BRAF^RBD construct, inhibiting K-Ras signaling through a RAF effector. Data is reported as IC50 values.
(§4) Compound was present in plate wells as a 10-point 3-fold dilution series starting at a final concentration of 30 μM. After incubation at 25° C. for 3 hours, a mixture of Anti-His Eu-W1024 and anti-GST allophycocyanin was then added to assay sample wells at final concentrations of 10 nM and 50 nM, respectively, and the reaction incubated for an additional 1.5 hours. […] Compounds that facilitate disruption of a K-Ras:RAF complex were identified as those eliciting a decrease in the TR-FRET ratio relative to DMSO control wells.
as §3, with “BRAF^RBDD” for “BRAF^RBD”

[3] = target: NRAS G12C (Homo sapiens, UniProt P01111+P62937, G12C); experiment: as above; format: biochemical
From the text: as §2, §3, §4
as §3, with “BRAF^RBDD” for “BRAF^RBD”

[4] = target: KRAS G13C (Homo sapiens, UniProt P01116+P62937, G13C); experiment: as above; format: biochemical
From the text: as §2, §3, §4
as §3, with “BRAF^RBDD” for “BRAF^RBD”

[5] = target: KRAS G12S (Homo sapiens, UniProt P01116+P62937, G12S); experiment: as above; format: biochemical
From the text: as §2, §3, §4
as §3, with “BRAF^RBDD” for “BRAF^RBD”

[6] = target: KRAS G13D (Homo sapiens, UniProt P01116+P62937, G13D); experiment: as above; format: biochemical
From the text: as §2, §3, §4
as §3, with “BRAF^RBDD” for “BRAF^RBD”

[7] = target: KRAS G12V (Homo sapiens, UniProt P01116+P62937, G12V); experiment: as above; format: biochemical
From the text: as §2, §3, §4
as §3, with “BRAF^RBDD” for “BRAF^RBD”

[8] = target: KRAS G12C (Homo sapiens, UniProt P01116+P62937, G12C); experiment: as above; format: biochemical
From the text: as §2, §3, §4
as §3, with “BRAF^RBDD” for “BRAF^RBD”

[9] = target: KRAS WT (Homo sapiens, UniProt P01116+P62937); experiment: as above; format: biochemical
From the text: as §2, §3, §4
as §3, with “BRAF^RBDD” for “BRAF^RBD”

[10] = read-out: KRAS G12D FRET data, IC50
[11] = NRAS G12C, read-out: NRAS G12C FRET data IC50
[12] = read-out: KRAS G12S FRET data, IC50
[13] = KRAS G13D, read-out: KRAS G13D FRET data IC50
[14] = KRAS G12V, read-out: KRAS G12V FRET data IC50
[15] = KRAS WT, read-out: KRAS WT FRET data IC50
[16] = NCI-H358, 120 h, 5-day treatment, read-out: H358 Cell Viability assay data (K-Ras G12C, IC50)
[17] = read-out: KRAS G13C FRET data, IC50
[18] = read-out: KRAS G12C FRET data, IC50

KRAS G12C, sequence (P01116 1-169 isoform P01116-2 G12C): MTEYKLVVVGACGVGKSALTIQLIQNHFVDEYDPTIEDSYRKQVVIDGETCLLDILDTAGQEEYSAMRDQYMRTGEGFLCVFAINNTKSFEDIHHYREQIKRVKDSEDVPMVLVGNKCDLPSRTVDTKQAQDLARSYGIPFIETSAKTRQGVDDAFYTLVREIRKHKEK
KRAS G12C, sequence (P62937 whole entry): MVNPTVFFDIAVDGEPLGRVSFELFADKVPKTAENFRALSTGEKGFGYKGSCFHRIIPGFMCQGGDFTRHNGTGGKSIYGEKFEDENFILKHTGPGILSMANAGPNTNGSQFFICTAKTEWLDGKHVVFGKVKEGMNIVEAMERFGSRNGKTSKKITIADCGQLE
KRAS G13C, sequence (P01116 1-169 isoform P01116-2 G13C): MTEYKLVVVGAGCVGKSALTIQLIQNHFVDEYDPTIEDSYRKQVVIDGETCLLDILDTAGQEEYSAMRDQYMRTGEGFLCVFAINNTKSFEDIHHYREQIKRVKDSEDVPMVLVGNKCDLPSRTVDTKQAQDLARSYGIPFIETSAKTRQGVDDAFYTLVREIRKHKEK
KRAS G13C, sequence (P62937 whole entry): as the sequence (P62937 whole entry) above
KRAS G12D, sequence (P01116 1-169 isoform P01116-2 G12D limits assumed): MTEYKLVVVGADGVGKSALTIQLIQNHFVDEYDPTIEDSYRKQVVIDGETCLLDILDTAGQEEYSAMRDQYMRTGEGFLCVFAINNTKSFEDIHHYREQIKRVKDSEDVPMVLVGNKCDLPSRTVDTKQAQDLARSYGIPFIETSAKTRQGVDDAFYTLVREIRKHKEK
KRAS G12D, sequence (P62937 whole entry): as the sequence (P62937 whole entry) above
KRAS G12S, sequence (P01116 1-169 isoform P01116-2 G12S limits assumed): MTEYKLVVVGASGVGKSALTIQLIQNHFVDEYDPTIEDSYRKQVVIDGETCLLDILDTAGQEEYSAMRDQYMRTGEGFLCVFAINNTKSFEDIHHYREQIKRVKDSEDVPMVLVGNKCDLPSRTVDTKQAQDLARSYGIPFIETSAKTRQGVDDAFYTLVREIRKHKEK
KRAS G12S, sequence (P62937 whole entry): as the sequence (P62937 whole entry) above
NRAS G12C, sequence (P01111 whole entry G12C): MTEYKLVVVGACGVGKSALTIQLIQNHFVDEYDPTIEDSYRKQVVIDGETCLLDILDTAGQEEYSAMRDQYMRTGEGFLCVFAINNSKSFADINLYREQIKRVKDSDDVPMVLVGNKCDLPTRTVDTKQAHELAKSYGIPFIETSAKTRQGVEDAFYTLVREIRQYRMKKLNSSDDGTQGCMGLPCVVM
NRAS G12C, sequence (P62937 whole entry): as the sequence (P62937 whole entry) above
KRAS G12V, sequence (P01116 1-169 isoform P01116-2 G12V limits assumed): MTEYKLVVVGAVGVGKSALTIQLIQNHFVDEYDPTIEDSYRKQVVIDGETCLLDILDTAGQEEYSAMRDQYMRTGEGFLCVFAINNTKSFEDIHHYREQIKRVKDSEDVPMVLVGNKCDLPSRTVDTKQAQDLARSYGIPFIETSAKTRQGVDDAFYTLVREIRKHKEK
KRAS G12V, sequence (P62937 whole entry): as the sequence (P62937 whole entry) above
KRAS WT, sequence (P01116 1-169 isoform P01116-2 limits assumed): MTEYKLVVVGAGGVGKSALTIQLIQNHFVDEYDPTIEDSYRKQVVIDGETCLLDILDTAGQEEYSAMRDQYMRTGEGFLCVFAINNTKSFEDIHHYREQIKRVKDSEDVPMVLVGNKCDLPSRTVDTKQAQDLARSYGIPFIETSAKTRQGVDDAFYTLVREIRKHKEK
KRAS WT, sequence (P62937 whole entry): as the sequence (P62937 whole entry) above
KRAS G13D, sequence (P01116 1-169 isoform P01116-2 G13D limits assumed): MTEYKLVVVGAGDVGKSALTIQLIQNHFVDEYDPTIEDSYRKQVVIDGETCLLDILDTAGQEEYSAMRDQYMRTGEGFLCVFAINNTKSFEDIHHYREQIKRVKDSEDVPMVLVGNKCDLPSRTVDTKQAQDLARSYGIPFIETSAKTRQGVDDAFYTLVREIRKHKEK
KRAS G13D, sequence (P62937 whole entry): as the sequence (P62937 whole entry) above

| SMILES | IC50 [2, 10] | IC50 [3, 11] [nM] | IC50 [5, 12] | IC50 [6, 13] | IC50 [7, 14] | IC50 [9, 15] | IC50 [1, 16] [nM] | IC50 [4, 17] | IC50 [8, 18] | also measured |
| --- | --- | --- | --- | --- | --- | --- | --- | --- | --- | --- |
| C=CC(=O)N1CC[C@H](C(=O)N(C)[C@H](C(=O)N[C@H]2C[C@H]3CN(CCCO3)c3ccc4c(c3)c(c(-c3cccnc3[C@H](C)OC)n4CC)CC(C)(C)COC(=O)[C@@H]3CCCN(N3)C2=O)C(C)C)C1 (racemic) [Example A405] | > 10000 nM | > 10000 | > 10000 nM | > 10000 nM | > 10000 nM | > 10000 nM |  |  |  | IC50 ([1]; NCI-H358, H358, K-Ras G12C, read-out: Additional H358 Cell Viability assay data (K-Ras G12C, IC50)): > 1000 nM; IC50 ([4]; KRAS G13C, read-out: KRAS G13C FRET data IC50): > 10000 nM; IC50 ([8]; KRAS G12C, read-out: KRAS G12C FRET data IC50): 1000 to 10000 nM |
| CCn1c(-c2cnccc2COC)c2c3cc(ccc31)-c1cc(O)cc(c1)C[C@H](NC(=O)[C@H](C(C)C)N(C)C(=O)[C@H]1CCN(C(=O)C3COC3)C1)C(=O)N1CCC[C@H](N1)C(=O)OCC(C)(C)C2 [Example A9] | 1000 to 10000 nM | 100 to 1000 | 100 to 1000 nM | 100 to 1000 nM | 100 to 1000 nM | 100 to 1000 nM | 1000 to 10000 | 100 to 1000 nM | 10 to 100 nM |  |
| CCn1c(-c2cnccc2COC)c2c3cc(ccc31)-c1cc(O)cc(c1)C[C@H](NC(=O)[C@H](C(C)C)N(C)C(=O)[C@H]1CCNC1)C(=O)N1CCC[C@H](N1)C(=O)OCC(C)(C)C2 [Example A10] | 100 to 1000 nM | 10 to 100 | 10 to 100 nM | 10 to 100 nM | 100 to 1000 nM | 10 to 100 nM | 1000 to 10000 | 10 to 100 nM | 10 to 100 nM |  |
| CCn1c(-c2cccnc2COC)c2c3cc(ccc31)-c1cc(O)cc(c1)C[C@H](NC(=O)[C@H](C(C)C)N(C)C(=O)[C@H]1CCN(C(=O)CN)C1)C(=O)N1CCC[C@H](N1)C(=O)OCC(C)(C)C2 [Example A12] | 100 to 1000 nM and 1000 to 10000 nM | 1000 to 10000 | 100 to 1000 nM and 1000 to 10000 nM | 100 to 1000 nM and 1000 to 10000 nM | 100 to 1000 nM and 1000 to 10000 nM | 100 to 1000 nM and 1000 to 10000 nM |  | 100 to 1000 nM and 1000 to 10000 nM | 100 to 1000 nM and 10 to 100 nM | IC50 ([1]; NCI-H358, 120 h, 5-day treatment, read-out: H358 Cell Viability IC50): 4290 nM; IC50 ([2]; read-out: FRET G12D IC50): 154 nM; IC50 ([4]; read-out: FRET G13C IC50): 148 nM; IC50 ([6]; read-out: FRET G13D IC50): 219 nM; IC50 ([7]; read-out: FRET G12V IC50): 329 nM; IC50 ([8]; read-out: FRET G12C IC50): 68 nM |
| CCn1c(-c2cnccc2COC)c2c3cc(ccc31)-c1cc(O)cc(c1)C[C@H](NC(=O)[C@H](C(C)C)N(C)C(=O)[C@H]1CCN(CCO)C1)C(=O)N1CCC[C@H](N1)C(=O)OCC(C)(C)C2 [Example A23, (2S)—N-[(8S,14S)-22-ethyl-4-hydroxy-21-[4-(methoxymethyl)pyridin-3-yl]-18,18-dimethyl-9,15-dioxo-16-oxa-10,22,28-triazapentacyclo[18.5.2.1^2,6.1^10,14.0^23,27]nonacosa-1(26),2,4,6(29),20,23(27),24-heptaen-8-yl]-2-{1-[(3S)-1-(2-hydroxyethyl)pyrrolidin-3-yl]-N-methylformamido}-3-methylbutanamide] |  |  |  |  |  |  | 1000 to 10000 |  |  | IC50 ([2]; KRAS G12D FRET data, IC50): 100 to 1000 nM; IC50 ([3]; NRAS G12C FRET data IC50, NRAS G12C): 100 to 1000 nM; IC50 ([4]; KRAS G13C FRET data, IC50): 10 to 100 nM; IC50 ([5]; KRAS G12S FRET data, IC50): 100 to 1000 nM; IC50 ([6]; KRAS G13D FRET data IC50, KRAS G13D): 10 to 100 nM; IC50 ([7]; KRAS G12V FRET data IC50, KRAS G12V): 1000 to 10000 nM; IC50 ([8]; KRAS G12C FRET data, IC50): 100 to 1000 nM; IC50 ([9]; KRAS WT FRET data IC50, KRAS WT): 10 to 100 nM |
